Values of other authors in patent US10022349B2, “Cadotril particles” (Johnson & Johnson Consumer Inc., priority 2014, dated 2018).

Experiments:
[1] = poor aqueous solubility, dissolution rate limited absorption

Row | solubility in water (in words) | water solubility (room temperature) | Biopharmaceutical Classification System class [1] | Structure (SMILES)
1 | insoluble in water | about 10 micrograms/ml | class II | CC(=O)SCC(Cc1ccccc1)C(=O)NCC(=O)OCc1ccccc1 (racemic) [Racecadotril, (RS)-benzyl N-[3-(acetylthio)-2-benzylpropanoyl]glycinate]
2 | insoluble in water | – | – | CC(=O)SC[C@H](Cc1ccccc1)C(=O)NCC(=O)OCc1ccccc1 [dexecadotril, N—[(R)-2-Benzyl-3-(acetylthio)propionyl]glycine benzyl ester]
3 | insoluble in water | – | – | CC(=O)SC[C@@H](Cc1ccccc1)C(=O)NCC(=O)OCc1ccccc1 [ecadotril, N—[(S)-2-[(Acetylthio)methyl]-1-oxo-3-phenylpropyl]glycinebenzyl ester]
